Test results published in patent US11680047B2, “Enhanced erythropoiesis and iron metabolism” (FibroGen, Inc., priority 2003, dated 2023).

Experiments:
rat model of ACD [1] = assay: Rat model of ACD (PG-PS), Experimental Series 1; type: in vivo; details: anemic rats, 60 mg/kg PO
Source text: Anemia of chronic disease (ACD) is associated with various inflammatory conditions, including arthritis, neoplastic disease, and other disorders associated with chronic inflammation. A rat model of ACD was used to examine the effects of HIF stabilization using methods and compounds of the present invention on treating anemia associated with chronic disease. In this animal model, ACD is induced in rats by peptidoglycan-polysaccharide polymers. (See, e.g., Sartor et al. (1989) Infection and Immunity 57:1177-1185.) In this model, animals develop severe, acute anemia in the initial stages, followed by moderately severe chronic microcytic anemia in later stages.
Female Lewis rats of approximately 160 grams were challenged with PG-PS 10S (Lee Laboratories, 15 μg/gm body weight, intra-peritoneal). PG-PS 10S contains purified peptidoglycan-polysaccharide polymers isolated from the cell wall of Streptococcus pyogenes, Group A, D58 strain. Arthritis and anemia were allowed to develop for 35 days. On day 35, blood samples (approximately 400 μl) were taken from the tail vein under general anesthesia (Isoflurane) for CBC and reticulocyte counts (performed by Quality Clinical Labs). Animals with a spun hematocrit level at or above 45% were considered non-anemic and were removed from the study.
On day 35 following PG-PS injection, anemic animals received vehicle alone or were treated with compound A (60 mg/kg, PO) for two consecutive days per week for two weeks. Automated complete blood counts (CBC) were measured on day 35 (see above), 39, 42, and 49; serum iron levels were measured on day 49.

rat model of ACD [2] = assay: Rat model of ACD (PG-PS), Experimental Series 2; type: in vivo
Description: Female Lewis rats (approximately 150-200 gm) were injected with PG-PS (intra-peritoneal). Arthritis and anemia were allowed to develop for 28 days. Animals were administered compound A by oral gavage twice a week (Monday and Thursday) for six weeks, corresponding to days 28, 31, 35, 38, 42, 45, 49, 52, 56, 59, 63, 66, and 70 from PG-PS injection.
Whole blood was collected via the tail vein for CBC analysis on days 28, 42, 56, and 70. In addition, serum was collected on day 70 for iron binding analysis. CBC and iron binding analysis were performed by Quality Clinical Labs (Mountain View, Calif.).
Patients with anemia of chronic disease are clinically characterized by reduced plasma iron concentrations and transferrin saturation. The effect of the present compounds on serum iron and transferrin saturation in normal and anemic animals was determined. Using an animal model of anemia of chronic disease, anemia was induced in rats by IP injection of peptidoglycan-polysaccharide polymers, as described above. Arthritis and anemia were allowed to develop for 28 days. Animals were then treated with various concentrations of compound A, twice weekly, for 6 weeks. Serum iron levels and transferrin saturation were determined by Quality Clinical Labs.

sproutin = assay: Intestinal sproutin mRNA in rats of ACD Series 2 (microarray); type: in vivo, rat
Description: At week 6 following administration of compound A in anemic animals (40 mg/kg, twice a week), microarray analysis was performed to examine expression of genes encoding proteins involved with iron transport and absorption in intestine. Microarray analysis was performed using methods described above, using The Rat Genome 230A array (Affymetirx), which represents all sequence in the Rat Unigene database build 99 (National Center for Biotechnology Information, Bethesda, Md.), including approximately 4,699 well-characterized rat genes and approximately 10,467 EST sequences and approximately 700 non-EST sequences.

[3] = anemic rats, twice a week for six weeks

**Q.** With `O=C(O)CNC(=O)c1nc(Cl)c2ccccc2c1O` [Compound A, [(1-Chloro-4-hydroxy-isoquinoline-3-carbonyl)-amino]-acetic acid] as the molecule, how does the hematocrit levels (rat model of ACD [1]; 5 days after initiation of treatment) read?
**A.** The hematocrit levels was “approximately 37%”.

**Q.** What about the hemoglobin levels (rat model of ACD [1]; as early as 5 days (day 39)) of the same molecule?
**A.** The hemoglobin levels was “increased hemoglobin levels in anemic animals”.

**Q.** What about the Reticulocyte levels (rat model of ACD [1]; day 39) of the same molecule?
**A.** Its Reticulocyte levels is “approximately 10 % of red cell counts”.

**Q.** What about the hemoglobin levels (rat model of ACD [1]; day 49) of the same molecule?
**A.** The hemoglobin levels was “reaching a level comparable to control non-anemic animals”.

**Q.** What about the hematocrit levels (rat model of ACD [1]; following a second dosing) of the same molecule?
**A.** Its hematocrit levels is “approximately 40%”.

**Q.** And the “red blood cell count” value (rat model of ACD [1]; from day 39)?
**A.** Its value is “increased red blood cell count in anemic animals”.

**Q.** What about the mean corpuscular volume (rat model of ACD [1]; from day 39, vs non-treated anemic animals) of the same molecule?
**A.** The mean corpuscular volume was “increased mean corpuscular volume”.

**Q.** What about the “mean corpuscular hemoglobin levels” value (rat model of ACD [1]; vs non-treated anemic animals) of the same molecule?
**A.** Its value is “increased mean corpuscular hemoglobin levels”.

**Q.** And the serum iron levels (rat model of ACD [2]; anemic (PG-PS) and non-anemic control (sham) rats, twice weekly, 6 weeks)?
**A.** Its serum iron levels is “increased serum iron levels”.

**Q.** What about the hemoglobin levels (rat model of ACD [2]; anemic rats, 10 mg/kg, 20 mg/kg or 40 mg/kg twice weekly) of the same molecule?
**A.** The hemoglobin levels was “hemoglobin levels increased”.

**Q.** And the “red blood cell counts” value (rat model of ACD [2]; anemic rats, from 2 weeks, over the 6 week period)?
**A.** The value was “red blood cell counts were increased”.

**Q.** What about the hematocrit levels (rat model of ACD [2]; anemic rats, oral gavage twice a week) of the same molecule?
**A.** Its hematocrit levels is “increased hematocrit levels”.

**Q.** What about the “mean corpuscular hemoglobin levels” value (rat model of ACD [2]; [3]) of the same molecule?
**A.** The value was “reduction in the decrease in mean corpuscular hemoglobin levels”.

**Q.** And the mean corpuscular volume (rat model of ACD [2]; [3])?
**A.** Its mean corpuscular volume is “reduction of the decrease in mean corpuscular volume”.

**Q.** What about the hemoglobin levels (rat model of ACD [2]; non-anemic rats, 40 mg/kg twice a week) of the same molecule?
**A.** Its hemoglobin levels is “approximately 110 % of that in non-treated control animals”.

**Q.** What about the hematocrit levels (rat model of ACD [2]; non-challenged (non-anemic) rats, 40 mg/kg twice a week) of the same molecule?
**A.** The hematocrit levels was “greater than 110 % of that in non-challenged non-treated animals”.

**Q.** And the transferrin saturation (rat model of ACD [2]; vs non-treated non-anemic and non-treated anemic rats, twice weekly, 6 weeks)?
**A.** The transferrin saturation was “increased transferrin saturation”.

**Q.** What about the “intestinal expression of sproutin” value (sproutin; anemic rats, 40 mg/kg twice a week, week 6) of the same molecule?
**A.** Its value is “increased expression of both NRAMP2 and sproutin in intestine”.

**Q.** And the “intestinal expression of mRNA for sproutin” value (sproutin; control rats)?
**A.** The value was “increased intestinal expression”.
